The values that follow come from US20230278998A1, “Compound containing structure of a five-membered heteroaromatic ring, pharmaceutical compositions thereof and applications thereof” (280 Bio, Inc., priority 2022, published 2023).

Some results are limits rather than exact numbers.

Chain of PARG (389-976) (Q86W56 389-976): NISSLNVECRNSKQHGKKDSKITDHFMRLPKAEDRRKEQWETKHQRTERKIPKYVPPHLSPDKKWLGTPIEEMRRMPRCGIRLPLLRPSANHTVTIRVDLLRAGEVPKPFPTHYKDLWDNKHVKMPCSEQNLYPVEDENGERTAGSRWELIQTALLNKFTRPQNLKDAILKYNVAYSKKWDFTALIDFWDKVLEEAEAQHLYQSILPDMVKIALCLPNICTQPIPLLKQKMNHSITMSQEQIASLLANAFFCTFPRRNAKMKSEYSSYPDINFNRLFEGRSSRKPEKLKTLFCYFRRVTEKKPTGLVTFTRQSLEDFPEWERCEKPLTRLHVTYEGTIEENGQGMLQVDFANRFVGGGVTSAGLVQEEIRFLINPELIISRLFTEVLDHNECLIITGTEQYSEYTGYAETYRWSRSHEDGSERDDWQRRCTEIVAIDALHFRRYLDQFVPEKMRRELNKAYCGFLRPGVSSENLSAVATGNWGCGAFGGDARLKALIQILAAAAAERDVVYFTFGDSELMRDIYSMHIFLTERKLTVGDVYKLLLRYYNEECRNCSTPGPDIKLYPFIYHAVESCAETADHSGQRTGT

One test concerns the target PARG (389-976) (Homo sapiens (Human), UniProt Q86W56). Kind of test: PARG enzyme inhibition assay (TR-FRET). Type of test: biochemical. Particulars: Table 1, class symbol. How it is done: PARG Enzyme Inhibition Assay
PARG in vitro assays were conducted in standard 384-well plates in a total volume of 15 μL.
For orientation: In TR-FRET formats the signal depends on donor and acceptor labels being close together.
For the molecule `Cc1nc(C)c(Cn2nc(-c3nnc(C(F)F)s3)c3cc(S(=O)(=O)NC4(C)CC4)cc(C(F)(F)F)c32)s1` [Compound 10], the half-inhibitory concentration (IC50) (in general, the concentration at which inhibition is half-maximal) was in the range of 100 to 1000 nM.
The same measure, in the same setting: for `O=S(=O)(NC1(CF)CC1)c1ccc2c(c1)c(-c1nnc(C(F)F)s1)nn2CC1CC1` [Compound 12] the value was less than 100 nM.

The same test, now with this note: Table 2, class symbol.
`CC(C)C(=O)N1CCN(c2cc(S(=O)(=O)NC3(C)CC3)cc3c(-c4nnc(C(F)F)s4)csc23)CC1` [Compound 64] had an IC50 of less than 100 nM.
Still for that read-out and setting: in the case of `CC(C)S(=O)(=O)N1CCN(c2cc(S(=O)(=O)NC3(C#N)CC3)cc3c(-c4nnc(C(F)F)s4)nn(C)c23)CC1` [Compound 48] it was less than 100 nM; in that of `Cn1nc(-c2nnc(C(F)F)s2)c2cc(S(=O)(=O)NC3(C#N)CC3)cc(-c3ccccc3)c21` [Compound 28], less than 100 nM; in that of `C[C@H]1CN(c2cc(S(=O)(=O)NC3(C#N)CC3)cc3c(-c4nnc(C(F)F)s4)nn(C)c23)CCO1` [Compound 35], less than 100 nM.
In the case of `Cn1nc(-c2nnc(C(F)F)s2)c2cc(S(=O)(=O)NC3(C#N)CC3)cc(N3CCC(O)CC3)c21` [Compound 42], the IC50 is less than 100 nM.
On the same count and under the same terms, for `Cn1nc(-c2nnc(C(F)F)s2)c2cc(S(=O)(=O)NC3(C)CC3)cc(N3CCn4cncc4C3)c21` [Compound 20] the value was less than 100 nM; for `CC(C)C(=O)N1CCN(c2cc(S(=O)(=O)NC3(C)CC3)cc3c(-c4nnc(C(F)F)s4)nn(C(C)C)c23)CC1` [Compound 16], less than 100 nM; for `CC(C)C(=O)N1CCN(c2cc(S(=O)(=O)NC3(C#N)CC3)cc3c(-c4cnn(C)c4)nn(C)c23)CC1` [Compound 61], less than 100 nM.
Molecule `Cn1nc(-c2nnc(C(F)F)s2)c2cc(S(=O)(=O)NC3(C#N)CC3)cc(N3CCN(C(=O)N4CCCC4)CC3)c21` [Compound 51] yielded an IC50 of less than 100 nM.

Still in this test, the particulars now being: Table 3, class symbol.
On to `Cn1nc(-c2nnc(C(F)F)s2)c2cc(S(=O)(=O)NC3(C#N)CC3)cc(N3CC4(CCOCC4)C3)c21` [Compound 106], for which the half-inhibitory concentration (IC50) was less than 100 nM.
Still for that read-out and setting: in the case of `Cn1nc(-c2nnc(C(F)F)s2)c2cc(S(=O)(=O)NC3(C#N)CC3)cc(N3CCC(C(=O)N4CCCC4)CC3)c21` [Compound 89] it was less than 100 nM.
Take `Cn1nc(-c2nnc(C(F)F)s2)c2cc(S(=O)(=O)NC3(C#N)CC3)cc(-c3ccc(C(=O)N4CCCC4)cc3)c21` [Compound 135]: the 50% inhibitory concentration (IC50) was less than 100 nM.
The same measure, in the same setting: in the case of `Cn1nc(-c2nnc(C(F)F)s2)c2cc(S(=O)(=O)NC3(C#N)CC3)cc(C3CC4CCC(C3)N4)c21` (stereo not drawn) [Compound 121] it was less than 100 nM; in that of `CC(C)C(=O)N1CC=C(c2cc(S(=O)(=O)NC3(C#N)CC3)cc3c(-c4nnc(C(F)F)s4)nn(C[C@@H](O)CO)c23)CC1` [Compound 136], less than 100 nM; in that of `CCn1nc(-c2nnc(C(F)F)s2)c2cc(S(=O)(=O)NC3(C#N)CC3)cc(N3CC4CCC(C3)N4C(=O)C(C)C)c21` [Compound 93], less than 100 nM.
The same measure, in the same setting: for `CC(C)C(=O)N1C2CCCC1CN(c1cc(S(=O)(=O)NC3(C#N)CC3)cc3c(-c4nnc(C(F)F)s4)nn(C)c13)C2` [Compound 84] the value was less than 100 nM; for `CC(C)C(=O)N1CCN2c3cc(S(=O)(=O)NC4(C#N)CC4)cc4c(-c5nnc(C(F)F)s5)nn(c34)CC2C1` (stereo not drawn) [Compound 117], less than 100 nM; for `C[C@H](N)C(=O)N1CCN(c2cc(S(=O)(=O)NC3(C#N)CC3)cc3c(-c4nnc(C(F)F)s4)nn(CC(F)(F)F)c23)CC1` [Compound 111], less than 100 nM.
With `CCn1nc(-c2nnc(C(F)F)s2)c2cc(S(=O)(=O)NC3(C)CC3)c(F)c(N3CCN(C(=O)C(C)C)CC3)c21` [Compound 67], the IC50 is less than 100 nM.
Still for that read-out and setting: for `C[C@H](O)C(=O)N1CCN(c2cc(S(=O)(=O)NC3(C#N)CC3)cc3c(-c4nnc(C(F)F)s4)nn(CC(F)(F)F)c23)CC1` [Compound 110] the value was less than 100 nM.
Still for that read-out and setting: for `CC(C)C(=O)N1C2CCC1CN(c1cc(S(=O)(=O)NC3(C#N)CC3)cc3c(-c4nnc(C(F)F)s4)cn(C)c13)C2` [Compound 123] the value was less than 100 nM; for `CC(C)C(=O)N1CCN(c2cc(S(=O)(=O)NC3(C#N)CC3)cc3c(-c4nnc(C(F)F)s4)nn(C)c23)C[C@H]1C` [Compound 69], less than 100 nM.
